Results reported in BigSolDB 2.1.

Cc1cc(C#N)c(Nc2ccccc2[N+](=O)[O-])s1
Settings	solubility (mole fraction)
in DMSO, 292.15 K	0.0519
in DMSO, 297.15 K	0.0588
in DMSO, 301.15 K	0.0671
in DMSO, 306.15 K	0.0734
in DMSO, 310.15 K	0.0801
in DMSO, 316.15 K	0.0913
in DMSO, 320.15 K	0.101
in DMSO, 325.15 K	0.112
in DMSO, 328.15 K	0.123
in DMSO, 332.15 K	0.135
in acetic acid, 293.15 K	0.00487
in acetic acid, 297.15 K	0.00588
in acetic acid, 302.15 K	0.00725
in acetic acid, 307.15 K	0.00881
in acetic acid, 311.15 K	0.0109
in acetic acid, 316.15 K	0.0127
in acetic acid, 320.15 K	0.0159
in acetic acid, 325.15 K	0.0202
in acetic acid, 329.15 K	0.0248
in acetic acid, 333.15 K	0.0306
in acetone, 292.15 K	0.0262
in acetone, 296.15 K	0.0322
in acetone, 302.15 K	0.0377
in acetone, 305.15 K	0.0444
in acetone, 311.15 K	0.0513
in acetone, 316.15 K	0.0604
in ethanol, 292.15 K	0.00106
in ethanol, 296.15 K	0.00131
in ethanol, 302.15 K	0.00163
in ethanol, 306.15 K	0.00214
in ethanol, 311.15 K	0.00274
in ethanol, 315.15 K	0.00345
in ethanol, 320.15 K	0.00427
in ethanol, 325.15 K	0.00528
in ethanol, 329.15 K	0.00638
in ethanol, 334.15 K	0.00766
in ethyl acetate, 293.15 K	0.0199
in ethyl acetate, 296.15 K	0.0227
in ethyl acetate, 302.15 K	0.0255
in ethyl acetate, 306.15 K	0.0315
in ethyl acetate, 311.15 K	0.0379
in ethyl acetate, 315.15 K	0.0442
in ethyl acetate, 320.15 K	0.0494
in ethyl acetate, 324.15 K	0.0591
in ethyl acetate, 329.15 K	0.0713
in ethyl acetate, 333.15 K	0.0858
in methanol, 292.15 K	0.00109
in methanol, 297.15 K	0.00145
in methanol, 302.15 K	0.00186
in methanol, 306.15 K	0.00233
in methanol, 311.15 K	0.00291
in methanol, 315.15 K	0.00368
in methanol, 320.15 K	0.00464
in methanol, 324.15 K	0.00575
